Data on three molecules can be found in patent US20160278376A1 (priority 2013, published 2016).

Series [1] deals with Lcr. In words: microbe, parasite or virus in culture. In kind it is cell-based. The conditions noted are these: Liberibacter crescens, read-out: Minimum Inhibitory Concentration (MIC).
In series [2] the test system is Las. In kind it is in vivo.
The test system of series [3] is Las. The class given is in vivo. As to conditions: 1.5% (w/v) in 100% DMSO.
Series [4] relates to Swingle rootstocks and sweet orange. In words: Phytotoxicity of foliar spray / leaf painting on citrus. The class given is in vivo. An excerpt: To test the phytoxicity of cinnamaldehyde or carvacrol in 70% ethanol, and 70% ethanol alone on citrus plants, we applied 1% (w/v) and 10% (w/v) cinnamaldehyde or carvacrol (each dissolved in 70% ethanol) on Swingle rootstocks (˜6 inches to 1 foot tall) by spraying to the point of run-off of the spray and also sweet orange (˜3 foot tall) by painting one or both sides of a portion of the leaf surface. We also applied 70% ethanol as control in these two methods.

Series [5] has as its system Hamlin sweet orange trees grafted onto Swingle rootstock. The conditions noted are these: in vivo.
In series [6] the test system is L. crescens strain BT-1 (Lcr). In kind it is cell-based, Liberibacter crescens. As to conditions: 5 days.
Series [7] concerns Las. The class given is in vivo. The conditions noted are these: 1% (w/v) in 70% ethanol, foliar spray to run off; 1-2 weeks later, remained positive for at least several months; positive = Ct ≤ 35.
Series [8] has as its system E. coli Stratagene strain “Solopack”. In words: Paper disc inhibition assay on E. coli lawn. In kind it is cell-based. As to conditions: 20 μl drops without dilution (100% strength) on 6 mm discs; 24 hrs. The text has this: FIG. 1. Effect of Carvacrol, Cinnamaldehyde and Geraniol against E. coli cells. Twenty microliter drops of three chemicals (at 100% strength) were placed on paper assay discs on top of E. coli lawn. Control disc included a solution of 70% ethanol without any added essential oil. Dotted line circles indicate zone of inhibition. Photo taken at 24 hrs after plating.
The essential oils cinnamadehyde (Aldrich, W228605; ≧98% purity), carvacrol (Aldrich, W224502; ≧98% purity) and geraniol (Aldrich, 163333; 98% purity) were purchased Sigma-Aldrich (St. Louis, Mo.). A single colony of E. coli Stratagene strain “Solopack” was inoculated in 5 ml of Luria Broth (LB) liquid medium with shaking at 37° C. overnight. Two hundred μl of the E. coli overnight cultures were placed on an LB agar plate, and spread evenly with glass beads. The bacterial culture was allowed to absorb into the LB medium. Within 30 min after absorption, 20 μl drops of the three essential oils (cinnamaldehyde, carvacrol or geraniol) were separately placed without dilution on 6 mm discs (Whatman, Cat No. 2017-006; GE healthcare Life Science) and the treated disks were placed on top of the plates with E. coli. The plates were then incubated for 24 hrs. Photos were taken at 24 hrs after plating (see FIG. 1). Experiments were repeated, with the same results.

Series [9] deals with Swingle rootstocks. Briefly: Phytotoxicity of soil drench on citrus. In kind it is in vivo. An excerpt:
To further test the phytoxicity of cinnamaldehyde or carvacrol in 70% ethanol, and 70% ethanol alone on citrus plants, we applied 1% and 10% cinnamaldehyde or carvacrol (each dissolved in 70% ethanol) on Swingle rootstocks (˜6 inches to 1 foot tall) by adding sufficient liquid to soil of potted citrus to the point of run-off of the drench. We also applied 70% ethanol as control in these two methods.

[10] abbreviates: 1% (w/v) in 70% ethanol, sprayed to run-off on Swingle rootstocks, painted on sweet orange leaves, carvacrol effect observable by 24 hours.
Setting [11] is: 10% w/v in 70% ethanol, chlorosis and leaf curling, but not defoliation.
Where [12] appears, read: 20 μl at 2 mg/ml in 70% ethanol on 6 mm discs.
Where [13] appears, read: 1% in 70% ethanol (carvacrol: 8 mg/ml (1%), observable by 60 hrs), potted Swingle rootstocks.

Converted amounts (≈) assume the structure as drawn. Read-outs that look alike come from different tables or passages of the source.

With `O=C/C=C/c1ccccc1` [cinnamaldehyde], in series [1], the MIC was 5 µg/mL (≈ 37.8 µM). Besides, the “PCR test for Las” value in series [2] (0.3% in 50% DMSO, foliar spray to run off) is recorded as “remained infected”. Besides, the “PCR test for Las in new shoots” value is recorded as “completely Las negative” in series [2] (1.5% in 50% DMSO, foliar spray to run off, first tests about 3 weeks after defoliation) and “completely negative” in series [3] (2 x 20 ml trunk injection, first tests about 3 weeks after defoliation). The “outcome of weekly qPCR tests for Las over nine months” value in series [2] (1.5% in 50% DMSO, foliar spray, no detectable Liberibacter infection and no citrus greening symptoms) is reported as “cured”. For the same molecule, the “weekly PCR tests for Las over 9 months” value in series [3] (trunk injection, thus cured) is on record as “remained completely PCR negative”. The figures for the “phytotoxicity to citrus, foliar application” value in series [4] (setting [10]) and in [4] (setting [11]) were “not at all phytotoxic” and “moderately phytotoxic”, respectively. Besides, the “effect on foliage of treated trees” value in [5] is “completely defoliated”. Besides, the “inhibition of the growth of Lcr (zone of inhibition)” value (shortened to “inhibition of the growth of Lcr”) in series [6] (setting [12]) was “strong inhibition”. Further, the “level down to which inhibitory to Lcr in the disc tests” value in series [6] (two-fold serial dilutions in 70% ethanol on 6 mm discs) is 1 mg/mL. For the same molecule, the “qPCR test for Las after treatment” value in series [7] is on record as “qPCR positive”. In addition, in [8], the “inhibition of the growth of E. coli (zone of inhibition)” value (shortened to “inhibition of the growth of E. coli”) is on record as “more inhibitory than geraniol”. The “phytotoxicity to citrus, soil drench” value in [9] (setting [13]) was “not at all phytotoxic”; in series [9] (setting [11]) it was “moderately phytotoxic”.

Take `Cc1ccc(C(C)C)cc1O` [carvacrol, reference compound]: in series [4] (setting [10]), the “phytotoxicity to citrus, foliar application” value is “highly phytotoxic”. Moreover, the “inhibition of the growth of Lcr” value in [6] (setting [12]) was “slight inhibition”. In addition, in series [8], the “inhibition of the growth of E. coli” value is on record as “more inhibitory than cinnamaldehyde”. In addition, in [9] (setting [13]), the “phytotoxicity to citrus, soil drench” value is recorded as “highly phytotoxic”.

`CC(C)=CCC/C(C)=C/CO` [geraniol, reference compound]: in [6] (20 μl of two-fold dilutions 2 mg/ml to 0.125 mg/ml in 70% ethanol on 6 mm discs), the “inhibition of the growth of Lcr” value is on record as “not inhibitory”. In addition, the “inhibition of the growth of E. coli” value in [8] was “inhibitory”.
